Data set [1] is described as follows: Partition coefficient, log P of the compound. It counts as physicochemical. The following applies: octanol/water.
Data set [2] relates to Bacillus subtilis. The experiment in a line: Antibacterial activity against Bacillus subtilis at 500 ug/0.1 mL after 24 hr by agar diffusion method. Type of data set: functional.
Data set [3] has as its system Staphylococcus aureus. The experiment in a line: Antibacterial activity against Staphylococcus aureus at 500 ug/0.1 mL after 24 hr by agar diffusion method. It counts as functional. On the technique in general: Agar diffusion results depend on both activity and mobility in agar.
In data set [4] the test system is Escherichia coli. As to the kind of experiment: Antibacterial activity against Escherichia coli at 500 ug/0.1 mL after 24 hr by agar diffusion method. It counts as functional.
For data set [5], the system named is Pseudomonas aeruginosa. As to the kind of experiment: Antibacterial activity against Pseudomonas aeruginosa at 500 ug/0.1 mL after 24 hr by agar diffusion method. It counts as functional.
The test system of data set [6] is Bacillus subtilis. The experiment in a line: Antibacterial activity against Bacillus subtilis at 10 ug/0.1 mL after 24 hr by agar diffusion method. It counts as functional.
Data set [7] relates to Pseudomonas aeruginosa. The experiment in a line: Antibacterial activity against Pseudomonas aeruginosa at 10 ug/0.1 mL after 24 hr by agar diffusion method. Type of data set: functional.
Data set [8] deals with Staphylococcus aureus. As to the kind of experiment: Antibacterial activity against Staphylococcus aureus at 10 ug/0.1 mL after 24 hr by agar diffusion method. Type of data set: functional.
The test system of data set [9] is Escherichia coli. As to the kind of experiment: Antibacterial activity against Escherichia coli at 10 ug/0.1 mL after 24 hr by agar diffusion method. Type of data set: functional.

A word on the logP: it is the decadic logarithm of the partition coefficient of the neutral form, usually between octanol and water. A low value points to lower lipophilicity. In data set [1], `Cc1cc(=O)[nH]c2cc(NC(=O)c3c(Br)cccc3Br)ccc12` came in with a lipophilicity (logP) of 1.75. The “inhibition zone (IZ)” value in the data set with Bacillus subtilis [2] and with Staphylococcus aureus [3] was 12 mm throughout.

Take `Cc1cc(=O)[nH]c2cc(NC(=O)/C=C/c3ccccc3)ccc12`: the results for the “inhibition zone (IZ)” value in the data set with Escherichia coli [4] and with Bacillus subtilis [2] were 12 mm and 11 mm, respectively. This compound yielded a log partition coefficient (logP) in [1] of 1.69.

Consider `Cc1cc(=O)[nH]c2cc(NC(=O)c3ccc(Cl)cc3)ccc12`, for which the “inhibition zone (IZ)” value with Escherichia coli [4] is on record as 9 mm. The compound further displayed a log partition coefficient (logP) in data set [1] of 1.69.

On to `Cc1cc(=O)[nH]c2cc(NC(=O)c3ccccc3Cl)ccc12`, for which, in data set [1], the logP was 1.55. Also, in the data set with Bacillus subtilis [2], the “inhibition zone (IZ)” value turned out to be 10.5 mm.

Consider `Cc1cc(=O)[nH]c2cc(NC(=O)c3cccc4ccccc34)ccc12`, for which the results for the “inhibition zone (IZ)” value in the data set with Escherichia coli [4] and with Bacillus subtilis [2] were 11 mm and 13 mm, respectively. In data set [1], this compound displayed a lipophilicity (logP) of 1.72.

Regarding `Cc1cc(=O)[nH]c2cc(NC(=O)c3c([N+](=O)[O-])cccc3[N+](=O)[O-])ccc12`, the “inhibition zone (IZ)” value with Escherichia coli [4] turned out to be 13 mm; with Pseudomonas aeruginosa [5], 10 mm; with Bacillus subtilis [2], 12.5 mm. Further, in data set [1], the logP worked out at 1.82.

For the compound `Cc1cc(=O)[nH]c2cc(NC(=O)c3ccc(Cl)cc3Cl)ccc12`, the “inhibition zone (IZ)” value in the data set on Escherichia coli [4] was 9 mm. The same compound gave a lipophilicity (logP) in data set [1] of 1.83.

As to `CC(=O)Nc1ccc2c(C)cc(=O)[nH]c2c1`, the logP in data set [1] came to 0.995. For the same compound, the “inhibition zone (IZ)” value came out at 13 mm with Bacillus subtilis [2] and 11 mm in the data set with Staphylococcus aureus [3].

As for `Cc1cc(=O)[nH]c2cc(NC(=O)c3ccccc3)ccc12`, the logP in data set [1] was 1.66. The “inhibition zone (IZ)” value with Pseudomonas aeruginosa [5] came to 11 mm; in the data set on Bacillus subtilis [2], 12 mm.

In the case of `COc1ccc(C(=O)Nc2ccc3c(C)cc(=O)[nH]c3c2)cc1OC`, the “inhibition zone (IZ)” value in the data set on Escherichia coli [4] worked out at 15 mm; in the data set on Bacillus subtilis [2], 13 mm; in the data set on Staphylococcus aureus [3], 16 mm. In [1], the logP was 1.46.

Regarding `Cc1ccc(C(=O)Nc2ccc3c(C)cc(=O)[nH]c3c2)cc1`, the “inhibition zone (IZ)” value in the data set on Escherichia coli [4] was determined as 13 mm; in the data set on Pseudomonas aeruginosa [5] it was 10 mm. This compound also yielded a logP in data set [1] of 1.67.

Turning to `CC1(C)S[C@@H]2[C@H](NC(=O)[C@H](N)c3ccc(O)cc3)C(=O)N2[C@H]1C(=O)O` [AMOXICILLIN], the “inhibition zone (IZ)” value was found to be 34 mm with Bacillus subtilis [6], 26 mm in the data set with Pseudomonas aeruginosa [7], 30 mm in the data set on Staphylococcus aureus [8] and 23 mm in the data set on Escherichia coli [9].

As to `Cc1ccccc1C(=O)Nc1ccc2c(C)cc(=O)[nH]c2c1`, the logP in [1] was found to be 1.71. Also, the entries for the “inhibition zone (IZ)” value in the data set on Bacillus subtilis [2] and in the data set on Staphylococcus aureus [3] were 12 mm and 10 mm, respectively.

As to `Cc1cc(O)nc2cc(N)ccc12`, the “inhibition zone (IZ)” value in the data set with Escherichia coli [4] was 10 mm; with Pseudomonas aeruginosa [5] it was 11 mm; with Bacillus subtilis [2] it was 10 mm; in the data set with Staphylococcus aureus [3], 11 mm. The logP in [1] came out at 0.793.

In [1], `Cc1cc(=O)[nH]c2cc(NC(=O)c3cccc(Cl)c3)ccc12` had a lipophilicity (logP) of 1.69.

For the compound `Cc1cc(=O)[nH]c2cc(NC(=O)c3ccc(F)cc3)ccc12`, in data set [1], the logP stood at 1.61. Also, the figures for the “inhibition zone (IZ)” value in the data set on Bacillus subtilis [2] and with Staphylococcus aureus [3] were 12 mm and 11 mm, respectively.

As for `Cc1cc(=O)[nH]c2cc(NC(=O)c3ccc([N+](=O)[O-])cc3)ccc12`, the figures for the “inhibition zone (IZ)” value in the data set with Escherichia coli [4] and in the data set on Pseudomonas aeruginosa [5] were 11 mm and 9 mm, respectively. For the same compound, in data set [1], the log partition coefficient (logP) was determined as 1.63.

(Values after ChEMBL document CHEMBL3046791, “Design and synthesis of 2-quinolones as antioxidants and antimicrobials: a rational approach” (Med Chem Res, 2010).)
